Assay: Competitive slurry experiments Form I vs. Form III
Assay type: physicochemical
Conditions: ca. 3 days
Method: Competitive slurry experiments were set up in acetone, isopropanol, acetone:water (80:20) and isopropyl acetate at both room temperature (ca. 22° C.) and 60° C. Approximately 200 mg of each of Forms I and III material was placed into a vial and 4 mL of the appropriate solvent system was added to produce a slurry. For each experiment, the slurries were allowed to stir for ca. 3 days. Analysis by XRPD was then conducted to determine the form of the resultant solid. Competitive slurry experiments of Form I vs. Form III were carried out in 4 solvent systems and resulting solids were analysed by XRPD analysis (FIG. 82 and FIG. 83).

Result (form of resultant solid) (Acetone, 60° C.): Form I | Result (form of resultant solid) (Acetone, RT (ca. 22° C.)): Form I | Result (form of resultant solid) (Acetone:water (80:20), 60° C.): Form VIII | Result (form of resultant solid) (Acetone:water (80:20), RT (ca. 22° C.)): Form VIII | Result (form of resultant solid) (Isopropanol, 60° C.): Form I | Result (form of resultant solid) (Isopropanol, RT (ca. 22° C.)): Form I | Result (form of resultant solid) (Isopropyl acetate, 60° C.): Form I | Result (form of resultant solid) (Isopropyl acetate, RT (ca. 22° C.)): Form I
Compound: Br.C=CC(=O)Nc1cccc(Nc2nc(Nc3ccc(N4CCN(C(C)=O)CC4)cc3OC)ncc2C(F)(F)F)c1 [I and III]

— patent publication US20160074399A1, “Salts of an Epidermal Growth Factor Receptor Kinase Inhibitor” (Clovis Oncology, Inc., priority 2013, published 2016)
